This data set can be described thus: RP, Agilent ZORBAX Eclipse Plus C18, 150 × 2.1 mm, 3.5 µm, 40 °C, 0.3 mL/min, estimated dead time 1.1 min; A: water + 0.1% formic acid; B: acetonitrile + 0.1% formic acid; gradient (min/%B) 0/2 1/2 2/20 16.5/98 22/98. To be noted: stereoisomer not certain.

As for `CC12CCC3c4ccc(OS(=O)(=O)O)cc4CCC3C1CCC2=O` (stereo not given), the LC retention time was 11.1 min.
For the compound `COC1CC(CC2CCC(C)C(C(C)C(=O)O)O2)OC2(OC(C)(C3CCC(C)(C4OC(C5OC(O)(CO)C(C)CC5C)CC4C)O3)CC2C)C1C` (stereo not given), the LC retention time is 21.2 min.
`Cc1ncc([N+](=O)[O-])n1CCO`: the LC retention time was 4.81 min.
With `CC12CCC(=O)C=C1CCC1C2CCC2(C)C(O)CCC12` (stereo not given) the figure was 11 min; with `CC(C)CC[P+](c1ccccc1)(c1ccccc1)c1ccccc1`, 9.31 min; with `CC(C)(C)NCC(O)c1cc(O)cc(O)c1` (stereo not given), 4.55 min.
With `CCNc1nc(NC(C)(C)C)nc(SC)n1`, the LC retention time is 9.67 min.
For `CCOCCOC(=O)Nc1ccc(C)cc1`, the LC retention time was 10.8 min.
For the compound `COc1ccccc1Oc1c(NS(=O)(=O)c2ccc(C(C)(C)C)cc2)nc(-c2ncccn2)nc1OCCO`, the LC retention time was 12.1 min.
For `Cc1ccc(C(=O)O)cc1`, the LC retention time was 8.54 min.
As to `CCCCCCCCCCC(C(=O)c1ccc(OC)c(OC)c1)[N+](C)(C)C` (stereo not given), the LC retention time was 10.9 min.
For `CCCc1nn(C)c2c(=O)[nH]c(-c3cc(S(=O)(=O)N4CCN(C)CC4)ccc3OCC)nc12`, the LC retention time was 7.28 min.
With `CC1(C)CC(N(C=O)CCCCCCN(C=O)C2CC(C)(C)NC(C)(C)C2)CC(C)(C)N1`, the LC retention time was 4.67 min.
With `CC(Cc1ccc(C(C)(C)C)cc1)CN1CC(C)OC(C)C1` (stereo not given) the figure was 9.53 min; with `Cc1cn(C2CC(O)C(CO)O2)c(=O)[nH]c1=O` (stereo not given), 4.53 min; with `O=P(O)(c1ccccc1)c1ccccc1`, 7.24 min.
Consider `CC(=O)Nc1ccc(OC2OC(C(=O)O)C(O)C(O)C2O)cc1` (stereo not given), for which the LC retention time was 4.58 min.
`Cc1cn(C2CC(N=[N+]=[N-])C(CO)O2)c(=O)[nH]c1=O` (stereo not given): the LC retention time is 5.9 min.
Take `O=C(O)C(c1ccccc1)C1CCCCN1` (stereo not given): the LC retention time was 4.91 min.
As to `COCP(=O)(c1ccccc1)c1ccccc1`, the LC retention time was 8.67 min.
Regarding `COC(=O)C(=Cc1ccc(OC)cc1)C(=O)OC`, the LC retention time was 11 min.
As to `Cc1ccccc1NC(=O)Nc1ccccc1C`, the LC retention time is 11.1 min.
For the compound `CCN1CCCC1CNC(=O)c1cc(S(N)(=O)=O)ccc1OC` (stereo not given), the LC retention time was 4.96 min.
Regarding `O=C(NC1CCCCC1)N(Cc1ccccc1)Cc1ccccc1`, the LC retention time was 14.1 min.
Turning to `S=c1[nH]c2ccccc2o1`, the LC retention time is 8.26 min.
The figure for `NCCCCC(NC(CCc1ccccc1)C(=O)O)C(=O)N1CCCC1C(=O)O` (stereo not given) is 5.18 min; for `CN(C)CC(c1ccc(O)cc1)C1(O)CCCCC1` (stereo not given) it is 5.37 min.
With `CCOC(=O)NS(=O)(=O)c1ccc(C)cc1` the figure was 9.54 min; with `CCNC(=O)c1cccc(C)c1`, 8.34 min; with `CCOC(=O)CC(SP(=S)(OC)OC)C(=O)OCC` (stereo not given), 12.9 min.
With `NCC1(CC(=O)O)CCCCC1`, the LC retention time is 4.88 min.
For `CC1(C)CCCC(C)(C)N1O`, the LC retention time is 10.4 min.
With `Cn1c(N)nc2nc[nH]c2c1=O`, the LC retention time is 2.34 min.
The figure for `CCOC(=O)NCCOc1ccc(Oc2ccccc2)cc1` is 13.1 min.
Regarding `C[N+](C)(Cc1ccccc1)Cc1ccccc1`, the LC retention time was 6.13 min.
The figure for `CC1CC2C(C(O)CC3(C)C2CCC3(O)C(=O)CO)C2(C)C=CC(=O)C=C12` (stereo not given) is 9.02 min; for `O=C1CC(c2ccc(O)cc2)Oc2cc(O)cc(O)c21` (stereo not given) it is 9.18 min.
Regarding `COCCOC(=O)Nc1ccc(C)c(NC(=O)OCCOC)c1`, the LC retention time is 8.32 min.
As to `CC(C)c1nc(CN(C)C(=O)NC(C(=O)NC(Cc2ccccc2)CC(O)C(Cc2ccccc2)NC(=O)OCc2cncs2)C(C)C)cs1` (stereo not given), the LC retention time is 12.7 min.
Regarding `CC(C)(C)c1cc([N+](=O)[O-])cc([N+](=O)[O-])c1O`, the LC retention time is 13.9 min.
The figure for `CCCCCCCCCCCCCCN(C)C` is 11.4 min; for `O=C1NC(=O)C(c2ccccc2)(c2ccc(O)cc2)N1` (stereo not given) it is 7.26 min; for `O=P(Oc1ccccc1)(Oc1ccccc1)Oc1ccccc1` it is 14.1 min.
Take `CCCCCCCCCC[N+](C)(C)Cc1ccccc1`: the LC retention time was 10.4 min.
For `COC(=O)Nc1nc2ccc(S(=O)c3ccccc3)cc2[nH]1` (stereo not given), the LC retention time was 6.58 min.
Consider `Cc1c(C(C)C)c(=O)n(-c2ccccc2)n1C`, for which the LC retention time is 9.54 min.
Turning to `COc1cccc(C2(O)CCCCC2C[N+](C)(C)[O-])c1` (stereo not given), the LC retention time is 6.33 min.
As for `CCC(C(N)=O)N1CCCC1=O` (stereo not given), the LC retention time was 5.14 min.
As to `O=c1[nH]sc2ccccc12`, the LC retention time is 6.23 min.
As for `Cn1c(=O)[nH]c(=O)c2[nH]cnc21`, the LC retention time was 4.5 min.
Consider `Cc1ccc(OP(=O)(Oc2ccc(C)cc2)Oc2ccc(C)cc2)cc1`, for which the LC retention time was 15.9 min.
With `CC(CC(C)(C)C)CP(=O)(O)CC(C)CC(C)(C)C` (stereo not given), the LC retention time is 14.4 min.
As to `N#CC(C(=O)O)=C(c1ccccc1)c1ccccc1`, the LC retention time is 13.7 min.
Consider `COC(=O)C[P+](c1ccccc1)(c1ccccc1)c1ccccc1`, for which the LC retention time was 7.72 min.
Consider `Nc1ccc(O)c([N+](=O)[O-])c1`, for which the LC retention time is 4.69 min.
`CC(=O)C[P+](c1ccccc1)(c1ccccc1)c1ccccc1`: the LC retention time was 7.28 min.
With `CCCCC1C(=O)N(c2ccccc2)N(c2ccccc2)C1=O`, the LC retention time is 13.1 min.
As to `CSc1nc(NC(C)C)nc(NC(C)C)n1`, the LC retention time is 9.53 min.
`CCCC[N+](C)(CCCC)CCCC`: the LC retention time was 7.01 min.
The figure for `O=C(C[P+](c1ccccc1)(c1ccccc1)c1ccccc1)OCc1ccccc1` is 9.2 min; for `Cc1noc(NS(=O)(=O)c2ccc(N)cc2)c1C` it is 7.56 min.
As for `Cn1cnc2c1c(=O)[nH]c(=O)n2C`, the LC retention time was 5.24 min.
The figure for `CCOC(=O)c1ccc(O)c([N+](=O)[O-])c1` is 10.7 min.
As for `O=P(Oc1ccccc1)(Oc1ccccc1)Oc1cccc(OP(=O)(Oc2ccccc2)Oc2ccccc2)c1`, the LC retention time was 15.9 min.
Regarding `CC(=C(CCO)SSC(CCO)=C(C)N(C=O)Cc1cnc(C)nc1N)N(C=O)Cc1cnc(C)nc1N`, the LC retention time was 4.48 min.

These data come from the RepoRT retention time repository (doi:10.1016/j.chroma.2015.11.014).
